Test results reported in US5360818A, “1,3-dioxane derivatives having protein kinase C inhibitory activity” (Sphinx Pharmaceuticals Corporation, priority 1993, dated 1994).

What was measured:
[1] = test system: keratinocytes (NHEK cells); assay: Human keratinocyte inhibition (3H-thymidine incorporation); assay type: cell-based
Text: (§1) Cells were checked microscopically to determine detachment from surfaces, and plates were then harvested with a cell harvester (PHD, Cambridge Technology, Inc.) Filter papers corresponding to wells were placed in scintillation vials and counted to determine the amount of ^3 H-thymidine incorporated by the cells. Test agent response was compared to a positive control of cell wells with culture media only to determine the IC50. IC50 is the concentration of test compound required to inhibit fifty percent of the incorporation of ^3 H-thymidine into proliferating cells not exposed to test agent. Uptake of 3H-thymidine is a standard test for measuring the metabolism of cells. Cells which are actively proliferating take up ^3 H-thymidine whereas cells that are not proliferating take up ^3 H-thymidine at much slower rates or not at all. Test agents that inhibit the uptake of ^3 H-thymidine thus slow the growth of cells.
Proliferating keratinocytes (NHEK cells purchased from Clonetics, Inc., San Diego, Calif.) in second passage were grown in Keratinocyte Growth Medium (KGM) (Clonetics, Inc.) Cells were trypsinized (0.025% trypsin, Clonetics), counted with a hemacytometer (Scientific Products), and seeded at a concentration of 2,500 cells/well in a 96 well microtiter plate. After allowing cells to attach to the surface overnight, the culture medium was aspirated and replaced with 100 μl of fresh KGM. Test agents were evaluated and IC50 's were determined according to the ^3 H-thymidine incorporation procedures described as in Example 18. IC50 is the concentration of test compound required to inhibit fifty percent of the incorporation of ^3 H-thymidine into proliferating cells not exposed to test agent.

protein kinase C = assay: Protein kinase C inhibition assay (histone H1 phosphorylation); assay type: biochemical; conditions: rat brain enzyme; histone H1 substrate; 10 min
Method: A protein kinase C (PKC) assay is designed to duplicate the in vivo conditions required for protein kinase C function. Therefore, pH, salt and cofactor concentrations are similar to physiologic levels. A lysine rich histone, H1, was used in the assay as the phosphorylation acceptor-proteinbecause it is readily available and serves as a good substrate for protein kinase C. Enzyme was prepared from rat brain and purified to apparent homogeneity as determined by a single band on silver stained SDS-polyacrylamide.
In the screening assay, phosphatidylserine (PS) and DAG were co-sonicated to form unilamellar and multilamellar vesicles. The concentration of lipids in the assay were suboptimal to maximize the detection potential of the assay for inhibitors. Potential inhibitor compounds were added to the assay in dimethylsulfoxide at three concentrations to give final inhibitor concentrations of 4.3, 43 and 218 μM, respectively. The assay was started with the addition of enzyme and stopped after 10 min by the addition of 25% trichloroacetic acid (TCA) and 1.0 mg/ml bovine serum albumin (BSA). The radioactive histone product was retained and washed on glass fiber filters that allow the unreacted ^32 p-ATP to pass through. The amount of phosphorylation was determined by the radioactivity measured in a scintillation counter. Controls were included in every assay to measure background activity in the absence of enzyme, activity in the absence of lipids, and the maximum enzyme activity with saturating levels of the activator lipids.
Results of the protein kinase C assay are shown in Table 3 in the column labeled PKC. Results are shown as IC50, which is the concentration of test compound needed to inhibit 50% of the protein kinase C activity as compared with levels of protein kinase C activity in controls.

[2] = molecular target: T1, cAMP dependent protein kinase (PKA) (Bos taurus, UniProt P00517); assay: cAMP dependent protein kinase (PKA) assay; assay type: biochemical; conditions: 4.3, 43 and 218 μM; 10 min
T1 construct: no regulatory subunit
Method: Compounds found to be inhibitors of protein kinase C were tested for inhibitory activity against cAMP dependent protein kinase (PKA). This enzyme, like protein kinase C, plays an important role in cell-cell communication and is activated by a second messenger, cAMP. Secondary screening against PKA is useful for ascertaining the selectivity of the compounds of the invention. The catalytic subunit of PKA (Sigma Chemical Company, St. Louis, Mo.) was mixed with buffer before addition of the inhibitor in dimethylsulfoxide (DMSO). Potential inhibitor compounds were added to the assay in dimethylsulfoxide at three concentrations to give final inhibitor concentrations of 4.3, 43 and 218 μM, respectively. The assay was started by the addition of 32P-ATP and the reaction was allowed to proceed for 10 min before stopping with 25% trichloroacetic acid (TCA) and 1.0 mg/ml bovine serum albumin (BSA). Phosphorylated protein was then isolated by filtration and the radioactivity was counted in a beta scintillation counter.

[3] = test system: PMA-stimulated neutrophils; assay: Neutrophil superoxide anion release assay; assay type: cell-based; conditions: Homo sapiens, 0.5 h, 37° C., 30 minutes, cytochrome c reduction
Method: Neutrophils were isolated form whole blood collected from human volunteers. All reagent materials are obtained from Sigma Chemical Company with the exception of isotonic saline (Travenol Laboratories, Inc., Deerfield, Ill.) and lymphocyte separation medium (Organon Teknika, Durham, N.C.).
Whole blood was drawn and mixed with sodium heparin to a final concentration of 10 units/ml to prevent clotting. An equal volume of 3.0 % dextran in isotonic saline was added, mixed, and allowed to settle for 30 minutes to bind red blood cells (RBC). Supernatant was removed, underlayered with lymphocyte separation medium and centrifuged for 40 min at 400 xg in a centrifuge (Beckman GPR, Norcross, Ga.). The pellet was alternately taken up in 0.2% and 1.6% NaCl to lyse RBCs before washing with Hank's Balanced Salt Solution (HBSS). […]
The neutrophil cell concentration was adjusted to 2×10^6 cells/ml with HBSS before adding 0.8 ml cells to 12×75 mm polypropylene test tubes (Fisher Scientific). […] Optical density (OD) of cytochrome c was read in a spectrophotometer (Shimadzu) at 550 nm. […] Reducing cytochrome c increases its absorbance, and the change in OD of cytochrome c is proportional to the amount of […] produced by PMA stimulation. […] Inhibition is expressed as IC50 μM and is the amount of test compound that will inhibit fifty percent of the PMA-stimulated respiratory outburst, i.e. […] production.

[4] = test system: MCF-7 human breast tumor cell line; assay: Human tumor cell growth inhibition (3H-thymidine incorporation), MCF-7; assay type: cell-based; conditions: MCF7, 18 to 24 hrs
Text: (§2) MCF-7 a human breast tumor cell line and MCF-7/ADR an adriamycin resistant line of MCF-7 cells were obtained from the National Cancer Institute, Frederick, Md. CEM cells (ATCC accession number CCL 119) were obtained from the American Type Culture Collection, Rockville, Md.
(§3) Human tumor cells were trypsinized with 0.05% trypsin (GIBCO), counted with a hemacytometer and seeded at a concentration of 10,000 cells/well in a 96 well microtiter plate. After allowing cells to attach to the surface overnight, the culture medium was aspirated and replaced with 100 μl of fresh medium. Test agents were diluted to determine dose response at 2X final concentration and added in quadruplicate at 100 μl/well to bring the total volume of each well to 200 μl. The microtiter plate was then incubated at 37° C. 5% CO2 overnight for 18 to 24 hrs before ^3 H-thymidine was added at a concentration of 0.5 μCi/well in 50 μl culture medium. The plate was incubated again for 4 hrs under the same conditions as above. Supernatant was then aspirated and 50 μl of 0.05% trypsin (GIBCO) was added to each well.
as §1

[5] = test system: MCF-7/ADR adriamycin resistant line of MCF-7 cells; assay: Human tumor cell growth inhibition (3H-thymidine incorporation), MCF-7/ADR; assay type: cell-based; conditions: NCI/ADR-RES, 18 to 24 hrs
Text: as §2, §3, §1

IC50 [1] | IC50 (protein kinase C) | inhibitory activity against cAMP dependent protein kinase (PKA) [2] | IC50 [3] | IC50 [4] | IC50 [5] | Compound
6.5 µM |  |  |  |  |  | CCCCCCCCCCCCCCCC(O)C(CO)[N+](=O)[O-] (stereo not drawn) [Compound 3, Threo/erythro-2-Nitro-1,3-octadecanediol]
 | 83 µM |  |  |  |  | CCCCCCCCCCCCCCCC1OCOCC1N (stereo not shown) [Compound 24]
 | 64 µM | no effect on PKA activity |  |  |  | CCCCCCCCCCCCCCC[C@@H]1OC(C)OC[C@@H]1N (stereo partly drawn) [Compound 18, Threo-5-Amino-2-methyl-4-pentadecyl-1,3-dioxane]
 | 29 µM | no effect on PKA activity | 1.52 µM |  |  | CCCCCCCCCCCCCCC[C@@H]1OC(C)(C)OC[C@H]1NC(C)=N (relative stereo) [Compound 10, Erythro-5-Acetamidino-2,2-dimethyl-4-pentadecyl-1,3-dioxane]
 | 182 µM | no effect on PKA activity |  |  |  | CCCCCCCCCCCCCCC[C@@H]1OC(c2ccccc2)OC[C@@H]1N (stereo partly drawn) [Compound 19, Threo-5-Amino-2-phenyl-4-pentadecyl-1,3-dioxane]
 | 130 µM | no effect on PKA activity | 13.1 µM | 7.7 µM | 6.6 µM | CCCCCCCCCCCCCCC[C@@H]1OC(C)(C)OC[C@H]1N (relative stereo) [Compound 5, Erythro-2,2-dimethyl-5-amino-4-pentadecyl-1,3-dioxane]
4.7 µM | 120 µM | no effect on PKA activity |  | 6 µM | 5.5 µM | CCCCCCCCCCCCCCC[C@@H]1OC(C)(C)OC[C@@H]1N (relative stereo) [Compound 6, 2,2-Dimethyl-5-amino-4-pentadecyl-1,3-dioxane]
0.8 µM |  |  |  | 3.2 µM |  | CCCCCCCCCCCCCCC[C@H](O)[C@H](CO)NC(=O)OC(C)(C)C [Compound 11, Tert-Butyl (1S, 2S)-N-[2-hydroxy-1-(hydroxymethyl)heptadecyl]carbamate]
 | 121 µM | no effect on PKA activity |  | 5.1 µM | 6.3 µM | CCCCCCCCCCCCCCC[C@@H]1OC(C)(C)OC[C@@H]1N [Compound 13, Threo-(2S, 3S) -5-Amino-2,2-dimethyl-4-pentadecyl-1,3-dioxane]
